According to BigSolDB 2.1:

Q: For `CC(=O)c1ccc(S(C)(=O)=O)cc1`, which solubility (mole fraction) (in cyclohexane, 278.15 K) is on record?
A: 0.0049

Q: What about the solubility (mole fraction) (in cyclohexane, 283.15 K) of the same compound?
A: 0.0056

Q: And the solubility (mole fraction) (in cyclohexane, 288.15 K)?
A: 0.0065

Q: And the solubility (mole fraction) (in cyclohexane, 293.15 K)?
A: 0.0079

Q: What about the solubility (mole fraction) (in cyclohexane, 298.15 K) of the same compound?
A: 0.0091

Q: What about the solubility (mole fraction) (in cyclohexane, 303.15 K) of the same compound?
A: 0.0109

Q: What about the solubility (mole fraction) (in cyclohexane, 308.15 K) of the same compound?
A: 0.0129

Q: And the solubility (mole fraction) (in cyclohexane, 313.15 K)?
A: 0.0154

Q: What about the solubility (mole fraction) (in cyclohexane, 318.15 K) of the same compound?
A: 0.0182

Q: And the solubility (mole fraction) (in cyclohexane, 323.15 K)?
A: 0.0217

Q: And the solubility (mole fraction) (in cyclohexane, 328.15 K)?
A: 0.0255

Q: And the solubility (mole fraction) (in ethanol, 278.15 K)?
A: 0.0123

Q: And the solubility (mole fraction) (in ethanol, 283.15 K)?
A: 0.0137

Q: What about the solubility (mole fraction) (in ethanol, 288.15 K) of the same compound?
A: 0.0154

Q: And the solubility (mole fraction) (in ethanol, 293.15 K)?
A: 0.0172

Q: What about the solubility (mole fraction) (in ethanol, 298.15 K) of the same compound?
A: 0.0197

Q: What about the solubility (mole fraction) (in ethanol, 303.15 K) of the same compound?
A: 0.0221

Q: What about the solubility (mole fraction) (in ethanol, 308.15 K) of the same compound?
A: 0.0249

Q: And the solubility (mole fraction) (in ethanol, 313.15 K)?
A: 0.0283

Q: What about the solubility (mole fraction) (in ethanol, 318.15 K) of the same compound?
A: 0.0325

Q: And the solubility (mole fraction) (in ethanol, 323.15 K)?
A: 0.0381

Q: What about the solubility (mole fraction) (in ethanol, 328.15 K) of the same compound?
A: 0.0441

Q: And the solubility (mole fraction) (in ethyl acetate, 278.15 K)?
A: 0.0253

Q: And the solubility (mole fraction) (in ethyl acetate, 283.15 K)?
A: 0.027

Q: And the solubility (mole fraction) (in ethyl acetate, 288.15 K)?
A: 0.0295

Q: And the solubility (mole fraction) (in ethyl acetate, 293.15 K)?
A: 0.0326

Q: What about the solubility (mole fraction) (in ethyl acetate, 298.15 K) of the same compound?
A: 0.0361

Q: What about the solubility (mole fraction) (in ethyl acetate, 303.15 K) of the same compound?
A: 0.0402

Q: And the solubility (mole fraction) (in ethyl acetate, 308.15 K)?
A: 0.0446

Q: What about the solubility (mole fraction) (in ethyl acetate, 313.15 K) of the same compound?
A: 0.0501

Q: What about the solubility (mole fraction) (in ethyl acetate, 318.15 K) of the same compound?
A: 0.0565

Q: What about the solubility (mole fraction) (in ethyl acetate, 323.15 K) of the same compound?
A: 0.0639

Q: What about the solubility (mole fraction) (in ethyl acetate, 328.15 K) of the same compound?
A: 0.0745

Q: What about the solubility (mole fraction) (in ethylene glycol, 278.15 K) of the same compound?
A: 0.0179

Q: And the solubility (mole fraction) (in ethylene glycol, 283.15 K)?
A: 0.0194

Q: What about the solubility (mole fraction) (in ethylene glycol, 288.15 K) of the same compound?
A: 0.0211

Q: What about the solubility (mole fraction) (in ethylene glycol, 293.15 K) of the same compound?
A: 0.0238

Q: And the solubility (mole fraction) (in ethylene glycol, 298.15 K)?
A: 0.0273

Q: And the solubility (mole fraction) (in ethylene glycol, 303.15 K)?
A: 0.0307

Q: What about the solubility (mole fraction) (in ethylene glycol, 308.15 K) of the same compound?
A: 0.035

Q: And the solubility (mole fraction) (in ethylene glycol, 313.15 K)?
A: 0.0395

Q: What about the solubility (mole fraction) (in ethylene glycol, 318.15 K) of the same compound?
A: 0.045

Q: What about the solubility (mole fraction) (in ethylene glycol, 323.15 K) of the same compound?
A: 0.0507

Q: And the solubility (mole fraction) (in ethylene glycol, 328.15 K)?
A: 0.0597

Q: And the solubility (mole fraction) (in isobutanol, 278.15 K)?
A: 0.0074

Q: And the solubility (mole fraction) (in isobutanol, 283.15 K)?
A: 0.0083

Q: And the solubility (mole fraction) (in isobutanol, 288.15 K)?
A: 0.0094

Q: And the solubility (mole fraction) (in isobutanol, 293.15 K)?
A: 0.0108

Q: What about the solubility (mole fraction) (in isobutanol, 298.15 K) of the same compound?
A: 0.0124

Q: What about the solubility (mole fraction) (in isobutanol, 303.15 K) of the same compound?
A: 0.0142

Q: And the solubility (mole fraction) (in isobutanol, 308.15 K)?
A: 0.016

Q: What about the solubility (mole fraction) (in isobutanol, 313.15 K) of the same compound?
A: 0.0186

Q: What about the solubility (mole fraction) (in isobutanol, 318.15 K) of the same compound?
A: 0.0211

Q: And the solubility (mole fraction) (in isobutanol, 323.15 K)?
A: 0.0246

Q: What about the solubility (mole fraction) (in isobutanol, 328.15 K) of the same compound?
A: 0.0284

Q: What about the solubility (mole fraction) (in methanol, 278.15 K) of the same compound?
A: 0.0161

Q: What about the solubility (mole fraction) (in methanol, 283.15 K) of the same compound?
A: 0.0173

Q: What about the solubility (mole fraction) (in methanol, 288.15 K) of the same compound?
A: 0.019

Q: What about the solubility (mole fraction) (in methanol, 293.15 K) of the same compound?
A: 0.0215

Q: What about the solubility (mole fraction) (in methanol, 298.15 K) of the same compound?
A: 0.0246

Q: And the solubility (mole fraction) (in methanol, 303.15 K)?
A: 0.0281

Q: And the solubility (mole fraction) (in methanol, 308.15 K)?
A: 0.0321

Q: And the solubility (mole fraction) (in methanol, 313.15 K)?
A: 0.0369

Q: What about the solubility (mole fraction) (in methanol, 318.15 K) of the same compound?
A: 0.0421

Q: What about the solubility (mole fraction) (in methanol, 323.15 K) of the same compound?
A: 0.0481

Q: What about the solubility (mole fraction) (in methanol, 328.15 K) of the same compound?
A: 0.0568

Q: What about the solubility (mole fraction) (in n-butanol, 278.15 K) of the same compound?
A: 0.0087

Q: What about the solubility (mole fraction) (in n-butanol, 283.15 K) of the same compound?
A: 0.0096

Q: What about the solubility (mole fraction) (in n-butanol, 288.15 K) of the same compound?
A: 0.0111

Q: What about the solubility (mole fraction) (in n-butanol, 293.15 K) of the same compound?
A: 0.0125

Q: And the solubility (mole fraction) (in n-butanol, 298.15 K)?
A: 0.014

Q: What about the solubility (mole fraction) (in n-butanol, 303.15 K) of the same compound?
A: 0.016

Q: What about the solubility (mole fraction) (in n-butanol, 308.15 K) of the same compound?
A: 0.018

Q: What about the solubility (mole fraction) (in n-butanol, 313.15 K) of the same compound?
A: 0.0205

Q: What about the solubility (mole fraction) (in n-butanol, 318.15 K) of the same compound?
A: 0.0234

Q: What about the solubility (mole fraction) (in n-butanol, 323.15 K) of the same compound?
A: 0.0271

Q: What about the solubility (mole fraction) (in n-butanol, 328.15 K) of the same compound?
A: 0.0315

Q: And the solubility (mole fraction) (in n-hexane, 278.15 K)?
A: 0.003

Q: What about the solubility (mole fraction) (in n-hexane, 283.15 K) of the same compound?
A: 0.0038

Q: What about the solubility (mole fraction) (in n-hexane, 288.15 K) of the same compound?
A: 0.0049

Q: What about the solubility (mole fraction) (in n-hexane, 293.15 K) of the same compound?
A: 0.0062

Q: What about the solubility (mole fraction) (in n-hexane, 298.15 K) of the same compound?
A: 0.0077

Q: And the solubility (mole fraction) (in n-hexane, 303.15 K)?
A: 0.0099

Q: What about the solubility (mole fraction) (in n-hexane, 308.15 K) of the same compound?
A: 0.0121

Q: And the solubility (mole fraction) (in n-hexane, 313.15 K)?
A: 0.0146

Q: And the solubility (mole fraction) (in n-hexane, 318.15 K)?
A: 0.0171

Q: And the solubility (mole fraction) (in n-hexane, 323.15 K)?
A: 0.0204

Q: What about the solubility (mole fraction) (in n-hexane, 328.15 K) of the same compound?
A: 0.0241

Q: And the solubility (mole fraction) (in n-propanol, 278.15 K)?
A: 0.0104

Q: And the solubility (mole fraction) (in n-propanol, 283.15 K)?
A: 0.0114

Q: What about the solubility (mole fraction) (in n-propanol, 288.15 K) of the same compound?
A: 0.0129

Q: And the solubility (mole fraction) (in n-propanol, 293.15 K)?
A: 0.0144

Q: And the solubility (mole fraction) (in n-propanol, 298.15 K)?
A: 0.0162

Q: What about the solubility (mole fraction) (in n-propanol, 303.15 K) of the same compound?
A: 0.0185

Q: And the solubility (mole fraction) (in n-propanol, 308.15 K)?
A: 0.021

Q: And the solubility (mole fraction) (in n-propanol, 313.15 K)?
A: 0.0241

Q: And the solubility (mole fraction) (in n-propanol, 318.15 K)?
A: 0.0273

Q: And the solubility (mole fraction) (in n-propanol, 323.15 K)?
A: 0.0318

Q: What about the solubility (mole fraction) (in n-propanol, 328.15 K) of the same compound?
A: 0.0365
